From patent US11839636B1, “Pharmaceutical composition based on plant raw materials: #2.1” (priority 2022, dated 2023)

Test system: malondialdehyde (MDA)
Experiment: In vitro study of antioxidant effect (FeSO4-activated malondialdehyde in blood serum)
Format: biochemical
Conditions: 0.1 ml sample, 0.3 ml blood serum, FeSO4, 37° C. 15 min, MDA at 535 nm
Protocol: Three samples were examined to evaluate antioxidant effectiveness. […] Method: evaluation was done by determining the intermediate product of the lipid oxidation process, malondialdehyde (MDA). Amount of MDA increases under the influence of ferrous sulfate (FeSO4), this moment was used as a model for the activated oxidation process. Sequence of analysis: 0.1 ml of test sample, 1 μmol of ferrous sulfate solution was added to 0.3 ml of blood serum and incubated at 37° C. for 15 min. Then 3 ml of 3% orthophosphoric acid and 1 ml of 0.6% thiobaric acid were added to the incubation mixture. The mixture was placed on a boiling water bath for one hour. Then 4 ml of butanol was added. The obtained mixture was centrifuged for 10 minutes at 3000 rpm. In the obtained supernatant, the optical density (E) was determined on a spectrometer on a wavelength of 535 nm. MDA concentration (C) was determined by the formula C=E×84.5 μmol/L. The difference between the background concentration of MDA and iron activated was 100%, while the antioxidant activity of the samples was conditionally expressed in %.

With `O=C(O)CN(CCN(CC(=O)O)CC(=O)O)CC(=O)O` [Ethylenediaminetetraacetate] the “Relative Antioxidant Activity in %” value was 92%.
